{"source": "patent US6194176A", "about": "“Recombinant expression of proteins from secretory cell lines” (priority 1997, dated 2001)", "key": {"RIN 1046-38 cells": {"test_system": "RIN 1046-38 cells", "assay": "Insulin secretion in static incubation, glucose dose response with or without 5-thioglucose", "format": "cell-based", "settings": "Rattus norvegicus; 2 mM 5-thioglucose, 0.25 mM glucose + 100 μM IBMX, 2 h; read-out: reduction in insulin secretion", "procedure": "(§1) Cells were plated in 12-well dishes (Corning Glass Works, Corning, N.Y.) at a density of approximately 250,000 cells per well and allowed to grow for 48 hours. Cells were washed twice for 20 minutes each in HEPES/bicarbonate buffered salt solution (HBBSS; 114 mM NaCl, 4.7 mM KCl, 1.21 mM KH2 PO4, 1.16 mM MgSO4, 25.5 mM NaHCO3, 2.5 mM CaCl2, 10 mM Hepes) with 0.1% bovine serum albumin but without glucose. Secretion studies were then conducted by incubating cells in HBBSS containing 0.5% BSA and with glucose in a range of concentrations from 0 to 20 mM for two hours. These experiments were conducted in the presence and absence of 2 mM 5-thioglucose (Sigma, St. Louis, Mo.) and in the presence or absence of 100 μM isobutylmethylxanthine (IBMX). Following incubation, media was collected and assayed for insulin by radioimmunoassay with the DPC method, as described above. Secretion was normalized for cell number by measuring total protein in each well by the method of Bradford (1976), using the kit from Bio-Rad, Hercules, Calif."}, "R5C.I-17 cells": {"test_system": "R5C.I-17 cells", "assay": "Insulin secretion in static incubation, glucose dose response with or without 5-thioglucose", "format": "cell-based, rat", "procedure": "as §1"}, "EP 40/110 cells": {"test_system": "EP 40/110 cells", "assay": "Insulin secretion in static incubation, glucose dose response with or without 5-thioglucose", "format": "cell-based, rat", "settings": "2 mM 5-thioglucose, + IBMX, 2 h", "procedure": "as §1"}, "EP 49/206 cells": {"test_system": "EP 49/206 cells", "assay": "Insulin secretion in static incubation, glucose dose response with or without 5-thioglucose", "format": "cell-based, rat", "settings": "2 mM 5-thioglucose, + IBMX, 2 h", "procedure": "as §1"}, "Glucokinase (GK)": {"test_system": "Glucokinase (GK)", "settings": "cited from earlier work"}, "[1]": {"test_system": "Hexokinases I-III (HK1-111), low Km hexokinases", "settings": "HK1-111, Table 1, cited from earlier work"}}, "note": "pKi: −log10 of the molar value. Where two headings read alike, the source gives them in different places."}
{"compound": "O=C[C@H](O)[C@@H](O)[C@H](O)[C@H](S)CO", "note": "[5-thioglucose]", "values": [{"measurement": "inhibition at 2000 µM", "setting": "RIN 1046-38 cells", "result": 50, "unit": "%"}, {"measurement": "maximal fold-response of insulin secretion", "setting": "R5C.I-17 cells; 2 mM 5-thioglucose present, seen at 1 mM glucose + IBMX (5.7-fold without 5-thioglucose)", "result": 3.9, "unit": "fold"}, {"measurement": "inhibition at 2000 µM", "setting": "R5C.I-17 cells; Rattus norvegicus, 2 mM 5-thioglucose, no secretagogues or IBMX alone, 2 h, read-out: suppression of basal insulin secretion", "result": "~50", "unit": "%"}, {"measurement": "effect on insulin secretion response to 0.25 mM glucose", "setting": "EP 40/110 cells", "result": "completely eliminated"}, {"measurement": "inhibition at 2000 µM", "setting": "EP 40/110 cells; Rattus norvegicus, read-out: reduction of insulin secretion response to 0.5 mM glucose", "result": 70, "unit": "%"}, {"measurement": "effect on insulin secretion response to 0.05 and 0.25 mM glucose", "setting": "EP 49/206 cells", "result": "completely eliminated"}]}
{"compound": "Nc1ncnc2c1ncn2[C@@H]1O[C@H](COP(=O)(O)OP(=O)(O)OP(=O)(O)O)[C@@H](O)[C@H]1O", "note": "[ATP]", "values": [{"measurement": "Km", "setting": "Glucokinase (GK); GK of Table 1, read-out: Km ATP", "result": 500, "unit": "µM"}, {"measurement": "Km", "setting": "[1]; read-out: Km ATP", "result": "200 to 500", "unit": "µM"}]}
{"compound": "O=P(O)(O)OC[C@H]1OC(O)[C@H](O)[C@@H](O)[C@@H]1O", "note": "(some centres unmarked) [G-6-P, glucose-6-phosphate]", "values": [{"measurement": "pKi", "setting": "Glucokinase (GK); GK of Table 1, read-out: Ki G-6-P", "result": 1.22}, {"measurement": "glucose-6-phosphate concentration required for appreciable inhibition", "setting": "Glucokinase (GK)", "result": "> 10", "unit": "mM"}, {"measurement": "pKi", "setting": "[1]; read-out: Ki G-6-P", "result": "3.05 to 3.70"}]}
{"compound": "OC[C@H]1OC(O)[C@H](O)[C@@H](O)[C@@H]1O", "note": "(some centres unmarked) [glucose]", "values": [{"measurement": "Km", "setting": "Glucokinase (GK); GK of Table 1, read-out: Km glucose", "result": "5000 to 12000", "unit": "µM"}, {"measurement": "Km", "setting": "Glucokinase (GK); approximate, read-out: Km for glucose", "result": "6000 to 8000", "unit": "µM"}, {"measurement": "Km", "setting": "[1]; read-out: Km glucose", "result": "20 to 130", "unit": "µM"}]}
